The record followed here is article PMC12268683, “A global perspective on autoinducer-2-mediated cell communication in prokaryotes” (iScience, 2025).

Test [1] addresses T1, LsrB receptor of S. coelicolor A3(2) (first of two, locus not given).
T1 construct: His6-tagged, pET-28a, E. coli BL21(DE3) or its luxS mutant, Ni-NTA
The test is described as follows: isothermal titration calorimetry. As to conditions: 25 °C, 50 mM Tris, 150 mM NaCl, 10% glycerol, pH 8.0; one-site model; no borate added; which of the two LsrB not given. The test is classed as binding, Streptomyces coelicolor. From the text: isothermal titration calorimetry on LsrB receptor of S. coelicolor A3(2) (first of two, locus not printed) | the LsrB receptors bound AI-2 with high affinity

For test [2], the target named is T2, LsrB receptor of S. coelicolor A3(2) (second of two, locus not given).
T2 construct: His6-tagged, pET-28a, E. coli BL21(DE3) or its luxS mutant, Ni-NTA
Briefly: isothermal titration calorimetry. Type of test: binding, Streptomyces coelicolor. As to conditions: 25 °C, 50 mM Tris, 150 mM NaCl, 10% glycerol, pH 8.0; one-site model; no borate added; which of the two LsrB not given. The source says:
isothermal titration calorimetry on LsrB receptor of S. coelicolor A3(2) (second of two, locus not printed) | the LsrB receptors bound AI-2 with high affinity

`CC(=O)C(=O)[C@@H](O)CO` [DPD]: the Kd in test [1] turned out to be 175 ± 30 nM; in test [2] it was 101 ± 10 nM.
